# From PubChem BioAssay (NCI)
#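 Cells were grown in 96-well plates and exposed to each compound for 48 hours at five concentrations; endpoints were interpolated linearly between bracketing concentrations, or set to the highest concentration if not reached. Here, GI50 denotes the concentration required for 50% inhibition of growth. TGI: total growth inhibition.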
# Legend:
# Assay in all cases: DTP human tumour cell line panel, 48 h
# U251 CNS = system: U251 CNS
# MCF7 breast = system: MCF7 breast
# CAKI-1 renal = system: CAKI-1 renal
# SK-MEL-28 melanoma = system: SK-MEL-28 melanoma
# NCI-H23 lung = system: NCI-H23 lung
# K-562 leukemia = system: K-562 leukemia
# NCI-H460 lung = system: NCI-H460 lung
# OVCAR-3 ovarian = system: OVCAR-3 ovarian
# SF-295 CNS = system: SF-295 CNS
# OVCAR-8 ovarian = system: OVCAR-8 ovarian
# BT-549 breast = system: BT-549 breast
# SF-539 CNS = system: SF-539 CNS
# HT29 colon = system: HT29 colon
# EKVX NSCLC = system: EKVX NSCLC
# HCT-15 colon = system: HCT-15 colon
# M14 melanoma = system: M14 melanoma
# SK-MEL-5 melanoma = system: SK-MEL-5 melanoma
# TK-10 renal = system: TK-10 renal
# RXF 393 renal = system: RXF 393 renal
# T-47D breast = system: T-47D breast
# SK-MEL-2 melanoma = system: SK-MEL-2 melanoma
# HOP-92 NSCLC = system: HOP-92 NSCLC
# SNB-19 CNS = system: SNB-19 CNS
# OVCAR-5 ovarian = system: OVCAR-5 ovarian
# COLO 205 colon = system: COLO 205 colon
# MDA-MB-231 breast = system: MDA-MB-231 breast
# NCI-H226 lung = system: NCI-H226 lung
# 786-0 renal = system: 786-0 renal
# SR leukemia = system: SR leukemia
# MALME-3M melanoma = system: MALME-3M melanoma
# IGROV1 ovarian = system: IGROV1 ovarian
# RPMI-8226 leukemia = system: RPMI-8226 leukemia
# UACC-257 melanoma = system: UACC-257 melanoma
# HCC-2998 colon = system: HCC-2998 colon
# SF-268 CNS = system: SF-268 CNS
# DU-145 prostate = system: DU-145 prostate
# CCRF-CEM leukemia = system: CCRF-CEM leukemia
# A549 NSCLC = system: A549 NSCLC
# LOX IMVI melanoma = system: LOX IMVI melanoma
# NCI/ADR-RES ovarian = system: NCI/ADR-RES ovarian
# MOLT-4 leukemia = system: MOLT-4 leukemia
# SK-OV-3 ovarian = system: SK-OV-3 ovarian
# PC-3 prostate = system: PC-3 prostate
# HL-60(TB) leukemia = system: HL-60(TB) leukemia
# SNB-75 CNS = system: SNB-75 CNS
# NCI-H522 lung = system: NCI-H522 lung
# ACHN renal = system: ACHN renal
# UACC-62 melanoma = system: UACC-62 melanoma
# HS 578T breast = system: HS 578T breast
# SW-620 colon = system: SW-620 colon
# HOP-62 NSCLC = system: HOP-62 NSCLC
# A498 renal = system: A498 renal
# HCT-116 colon = system: HCT-116 colon
# SN12C renal = system: SN12C renal
# UO-31 renal = system: UO-31 renal
# OVCAR-4 ovarian = system: OVCAR-4 ovarian
# KM12 colon = system: KM12 colon
# MDA-MB-435 = system: MDA-MB-435
smiles,measurement,setting,value
CCCCCc1nc2c(c3c1CCCC3)CCCC2,GI50,U251 CNS,11.9 µM
same,TGI,U251 CNS,29.1 µM
same,GI50,MCF7 breast,5.28 µM
same,TGI,MCF7 breast,21.2 µM
same,GI50,CAKI-1 renal,3.98 µM
same,TGI,CAKI-1 renal,24 µM
same,GI50,SK-MEL-28 melanoma,14.8 µM
same,TGI,SK-MEL-28 melanoma,36.2 µM
same,GI50,NCI-H23 lung,5.06 µM
same,TGI,NCI-H23 lung,25.6 µM
same,GI50,K-562 leukemia,4.76 µM
same,TGI,K-562 leukemia,27.9 µM
same,GI50,NCI-H460 lung,12 µM
same,TGI,NCI-H460 lung,30.1 µM
same,GI50,OVCAR-3 ovarian,4.7 µM
same,TGI,OVCAR-3 ovarian,17.8 µM
same,GI50,SF-295 CNS,4.58 µM
same,TGI,SF-295 CNS,20.9 µM
same,GI50,OVCAR-8 ovarian,10.1 µM
same,TGI,OVCAR-8 ovarian,36.9 µM
same,GI50,BT-549 breast,10.7 µM
same,TGI,BT-549 breast,24.4 µM
same,GI50,SF-539 CNS,17.4 µM
same,TGI,SF-539 CNS,36.2 µM
same,GI50,HT29 colon,1.85 µM
same,TGI,HT29 colon,14.8 µM
same,GI50,EKVX NSCLC,4.21 µM
same,TGI,EKVX NSCLC,26.9 µM
same,GI50,HCT-15 colon,8.94 µM
same,TGI,HCT-15 colon,26.8 µM
same,GI50,M14 melanoma,12.9 µM
same,TGI,M14 melanoma,29.4 µM
same,GI50,SK-MEL-5 melanoma,6.19 µM
same,TGI,SK-MEL-5 melanoma,18.8 µM
same,GI50,TK-10 renal,8.44 µM
same,TGI,TK-10 renal,22.4 µM
same,GI50,RXF 393 renal,13.1 µM
same,TGI,RXF 393 renal,27.3 µM
same,GI50,T-47D breast,6.2 µM
same,TGI,T-47D breast,24.9 µM
same,GI50,SK-MEL-2 melanoma,12.7 µM
same,TGI,SK-MEL-2 melanoma,27.4 µM
same,GI50,HOP-92 NSCLC,1.95 µM
same,TGI,HOP-92 NSCLC,8.36 µM
same,GI50,SNB-19 CNS,18.3 µM
same,TGI,SNB-19 CNS,> 100 µM
same,GI50,OVCAR-5 ovarian,9.08 µM
same,TGI,OVCAR-5 ovarian,27.4 µM
same,GI50,COLO 205 colon,10.2 µM
same,TGI,COLO 205 colon,22.1 µM
same,GI50,MDA-MB-231 breast,11 µM
same,TGI,MDA-MB-231 breast,26.2 µM
same,GI50,NCI-H226 lung,9.57 µM
same,TGI,NCI-H226 lung,25.6 µM
same,GI50,786-0 renal,13.4 µM
same,TGI,786-0 renal,27.8 µM
same,GI50,SR leukemia,15.7 µM
same,TGI,SR leukemia,45.1 µM
same,GI50,MALME-3M melanoma,11.3 µM
same,TGI,MALME-3M melanoma,25.7 µM
same,GI50,IGROV1 ovarian,5.73 µM
same,TGI,IGROV1 ovarian,26.2 µM
same,GI50,RPMI-8226 leukemia,3.39 µM
same,TGI,RPMI-8226 leukemia,16.4 µM
same,GI50,UACC-257 melanoma,9.7 µM
same,TGI,UACC-257 melanoma,31.6 µM
same,GI50,HCC-2998 colon,10.2 µM
same,TGI,HCC-2998 colon,29.5 µM
same,GI50,SF-268 CNS,14.8 µM
same,TGI,SF-268 CNS,44.4 µM
same,GI50,DU-145 prostate,23.2 µM
same,TGI,DU-145 prostate,> 100 µM
same,GI50,CCRF-CEM leukemia,11.1 µM
same,TGI,CCRF-CEM leukemia,43.2 µM
same,GI50,A549 NSCLC,11.9 µM
same,TGI,A549 NSCLC,64 µM
same,GI50,LOX IMVI melanoma,13.4 µM
same,TGI,LOX IMVI melanoma,27 µM
same,GI50,NCI/ADR-RES ovarian,3.91 µM
same,TGI,NCI/ADR-RES ovarian,22.6 µM
same,GI50,MOLT-4 leukemia,8.88 µM
same,TGI,MOLT-4 leukemia,62.6 µM
same,GI50,SK-OV-3 ovarian,11.6 µM
same,TGI,SK-OV-3 ovarian,30 µM
same,GI50,PC-3 prostate,8.04 µM
same,TGI,PC-3 prostate,31.1 µM
same,GI50,HL-60(TB) leukemia,5.8 µM
same,TGI,HL-60(TB) leukemia,29.4 µM
same,GI50,SNB-75 CNS,13.3 µM
same,TGI,SNB-75 CNS,51.7 µM
same,GI50,NCI-H522 lung,2.84 µM
same,TGI,NCI-H522 lung,17.9 µM
same,GI50,ACHN renal,11.5 µM
same,TGI,ACHN renal,30.5 µM
same,GI50,UACC-62 melanoma,12.1 µM
same,TGI,UACC-62 melanoma,29.2 µM
same,GI50,HS 578T breast,14 µM
same,TGI,HS 578T breast,69.3 µM
same,GI50,SW-620 colon,11.2 µM
same,TGI,SW-620 colon,27.3 µM
same,GI50,HOP-62 NSCLC,13.1 µM
same,TGI,HOP-62 NSCLC,29.1 µM
same,GI50,A498 renal,3.28 µM
same,TGI,A498 renal,19.6 µM
same,GI50,HCT-116 colon,3.01 µM
same,TGI,HCT-116 colon,15.2 µM
same,GI50,SN12C renal,12.3 µM
same,TGI,SN12C renal,34.2 µM
same,GI50,UO-31 renal,2.19 µM
same,TGI,UO-31 renal,13.9 µM
same,GI50,OVCAR-4 ovarian,5.61 µM
same,TGI,OVCAR-4 ovarian,95.3 µM
same,GI50,KM12 colon,6.94 µM
same,TGI,KM12 colon,33.7 µM
same,GI50,MDA-MB-435,14.4 µM
same,TGI,MDA-MB-435,38.7 µM
